Patent US8163756B2 (priority 2004, dated 2012)

molecular target: B-Raf(V599E) kinase (Homo sapiens, UniProt P15056, V600E); experiment: B-Raf(V599E) kinase assay B1 (construct 1, MEK1 substrate, coupled spectrophotometric); type: biochemical; settings: not given
Procedure: The test compounds were incubated with the reaction mixtureat 30° C. for 2 h. […] The reaction rate was calculated using the […] time frame. […] IC50 values were calculated from a series of percent inhibition values determined at a range of inhibitor concentrations using software routines as implemented in the GraphPad Prism software package.

Sequence of B-Raf(V599E) kinase (P15056 with tags, fused parts or gaps V600E): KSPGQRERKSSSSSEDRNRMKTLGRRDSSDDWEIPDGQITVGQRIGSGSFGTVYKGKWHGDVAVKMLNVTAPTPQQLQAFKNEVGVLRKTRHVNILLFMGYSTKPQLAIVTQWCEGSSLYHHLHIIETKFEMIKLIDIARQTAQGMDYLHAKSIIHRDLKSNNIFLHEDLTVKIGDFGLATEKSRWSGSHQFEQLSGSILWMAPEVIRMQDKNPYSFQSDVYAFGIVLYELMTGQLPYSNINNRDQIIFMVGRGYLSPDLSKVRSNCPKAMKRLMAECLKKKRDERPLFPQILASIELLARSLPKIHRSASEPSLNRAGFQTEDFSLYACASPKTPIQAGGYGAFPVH

Compared with `CC(C)(C)c1cc(NC(=O)Nc2ccc(F)cc2F)n(-c2ccc3[nH]c(=O)ccc3c2)n1` [Example 332, 1-(3-t-butyl-1-(2-oxo-1,2-dihydroquinolin-6-yl)-1H-pyrazol-5-yl)-3-(2,4-difluorophenyl)urea], `CC(C)(C)c1cc(NC(=O)Nc2ccc(F)cc2F)n(-c2ccc3c(c2)C(=O)NCC3)n1` [Example 311, 1-(3-t-butyl-1-(1-oxo-1,2,3,4-tetrahydroiso-quinolin-7-yl)-1H-pyrazol-5-yl)-3-(2,4-difluorophenyl)urea] is 7.3-fold higher in IC50: 4.4 nM for the first, 32 nM for the second. The first is the more potent here.

Going from `CC(C)(C)c1cc(NC(=O)Nc2ccccc2F)n(-c2cccc(CC(N)=O)c2)n1` [Example 393, 1-{1-[3-(2-amino-2-oxoethyl)phenyl]-3-t-butyl-1H-pyrazol-5-yl}-3-(2-fluorophenyl)urea] to `CC(C)(C)c1cc(NC(=O)Nc2cc(F)c(F)cc2F)n(-c2cccc(CC(=O)O)c2)n1` [Example 370, 2-(3-(3-t-butyl-5-(3-(2,4,5-trifluorophenyl)-ureido)-1H-pyrazol-1-yl)phenyl)acetic acid], the IC50 falls from 20 nM to 8 nM (2.5-fold). The second is the more potent here.

Compared with `CC(C)(C)c1cc(NC(=O)Nc2ccccc2)n(-c2cc(CO)c3ccccc3c2)n1` [Example 290, 1-[3-t-butyl-1-(4-(hydroxymethyl)naphthalen-2-yl)-1H-pyrazol-5-yl]-3-phenylurea], `CC(C)(C)c1cc(NC(=O)Nc2cccc(Cl)c2Cl)n(-c2cc(CCO)c3ccccc3c2)n1` [Example 303, 1-{5-t-butyl-2-[4-(2-hydroxyethyl)naphthalen-2-yl]-2H-pyrazol-3-yl}-3-(2,3-dichlorophenyl)urea] is 2.8-fold lower in IC50: 12 nM for the first, 4.3 nM for the second. The second is the more potent here.

Going from `COc1cccc(-n2nc(C(C)(C)C)cc2NC(=O)Nc2cccc(Cl)c2)c1` [Example 231, 1-(3-t-butyl-1-(3-methoxyphenyl)-1H-pyrazol-5-yl)-3-(3-chlorophenyl)urea] to `CC(C)(C)c1cc(NC(=O)Nc2cccc(Cl)c2)n(-c2cccc(CO)c2)n1` [Example 222], the IC50 rises from 27 nM to 47 nM (1.7-fold). The first is the more potent here.

Going from `CC(C)(C)c1cc(NC(=O)Nc2ccccc2Cl)n(-c2ccc3c(c2)C(=O)NCC3)n1` [Example 313, 1-(3-t-butyl-1-(1-oxo-1,2,3,4-tetrahydroiso-quinolin-7-yl)-1H-pyrazol-5-yl)-3-(2-chlorophenyl)urea] to `CC(C)NCCc1cccc(-n2nc(C(C)(C)C)cc2NC(=O)Nc2cccc(Cl)c2Cl)c1` [Example 259, 1-(3-t-butyl-1-(3-(2-(isopropylamino)ethyl)phenyl)-1H-pyrazol-5-yl)-3-(2,3-dichlorophenyl)urea], the IC50 falls from 46 nM to 8.3 nM (5.5-fold).

In the case of `CC(C)(C)c1cc(NC(=O)Nc2ccc3c(c2)OCO3)n(-c2cccc(CCN)c2)n1` [Example 253, 1-{1-[3-(2-aminoethyl)phenyl]-3-t-butyl-1 H-pyrazol-5-yl}-3-(benzo[d][1,3]dioxol-5-yl)urea], the IC50 is reported as 75 nM.

same assay, conditions: Method B1; read-out: B-Raf Data

With `O=C(O)Cc1cccc(-n2nc(C3CCCC3)cc2NC(=O)Nc2cccc(Cl)c2Cl)c1` [Example 368, 2-(3-(3-cyclopentyl-5-(3-(2,3-dichlorophenyl)-ureido)-1H-pyrazol-1-yl)phenyl)acetic acid] the IC50 was 6.2 nM.

molecular target: phosphorylated p-38-alpha kinase (Homo sapiens, UniProt Q16539); experiment: P-38 alpha kinase assay P1 (coupled spectrophotometric, 2 h pre-incubation); type: biochemical; settings: method P1 (2 h pre-incubation); read-out: P-38 Data
Sequence (Q16539 1-360 isoform Q16539-2): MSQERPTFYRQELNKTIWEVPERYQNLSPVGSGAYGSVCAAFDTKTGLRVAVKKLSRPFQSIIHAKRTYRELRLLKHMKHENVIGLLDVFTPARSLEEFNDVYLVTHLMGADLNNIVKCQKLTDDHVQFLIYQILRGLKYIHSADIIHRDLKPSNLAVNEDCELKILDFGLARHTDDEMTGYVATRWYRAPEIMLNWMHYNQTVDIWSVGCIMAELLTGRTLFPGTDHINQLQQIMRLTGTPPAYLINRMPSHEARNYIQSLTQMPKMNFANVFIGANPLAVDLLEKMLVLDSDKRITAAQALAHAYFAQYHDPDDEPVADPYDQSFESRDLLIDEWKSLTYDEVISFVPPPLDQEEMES

`CC(C)(C)c1cc(NC(=O)Nc2cccc(Cl)c2Cl)n(-c2cccc(CC(=O)N3CCC[C@@H]3CO)c2)n1` [Example 407, 1-(3-t-butyl-1-(3-(2-((R)-2-(hydroxymethyl)pyrrolidin-1-yl)-2-oxoethyl)phenyl)-1H-pyrazol-5-yl)-3-(2,3-dichlorophenyl)urea] and `CC(C)(C)c1cc(NC(=O)Nc2cccc(Cl)c2Cl)n(-c2cccc(CC(=O)N3CCC[C@H]3CO)c2)n1` [Example 408, 1-(3-t-butyl-1-(3-(2-((S)-2-(hydroxymethyl)pyrrolidin-1-yl)-2-oxoethyl)phenyl)-1H-pyrazol-5-yl)-3-(2,3-dichlorophenyl)urea] are within 1.5-fold of each other in IC50: 45 nM for the first, 46 nM for the second.

First: O=C(O)Cc1cccc(-n2nc(-c3ccccc3F)cc2NC(=O)Nc2ccc(F)c(F)c2F)c1 [Example 362, 2-(3-(3-(2-fluorophenyl)-5-(3-(2,3,4-trifluorophenyl)-ureido)-1H-pyrazol-1-yl)phenyl)acetic acid]
Second: NC(=O)Cc1cccc(-n2nc(-c3ccccc3F)cc2NC(=O)Nc2ccc(F)c(F)c2F)c1 [Example 422, 1-(1-(3-(2-Amino-2-oxoethyl)phenyl)-3-(2-fluorophenyl)-1H-pyrazol-5-yl)-3-(2,3,4-trifluorophemyl)urea]
The IC50 of the first is 2.6-fold lower: 38 nM for the first, 98 nM for the second.

First: COC[C@@H]1CCCN1C(=O)Cc1ccc(-n2nc(C(C)(C)C)cc2NC(=O)Nc2cccc(Cl)c2Cl)cc1 [Example 485, (S)-1-(3-t-butyl-1-(4-(2-(2-(methoxymethyl)pyrrolidin-1-yl)-2-oxoethyl)phenyl)-1H-pyrazol-5-yl)-3-(2,3-dichlorophenyl)urea]
Second: CC(C)(C)c1cc(NC(=O)Nc2ccc(F)c(F)c2F)n(-c2ccc(CC(N)=O)cc2)n1 [Example 466, 1-(1-(4-(2-amino-2-oxoethyl)phenyl)-3-t-butyl-1H-pyrazol-5-yl)-3-(2,3,4-trifluorophenyl)urea]
The IC50 of the first is 1.8-fold lower: 12 nM for the first, 22 nM for the second. The first is the more potent here.

`O=C(Cc1cccc(-n2nc(-c3ccccc3F)cc2NC(=O)Nc2cccc3ccccc23)c1)NCCO` [Example 426, 1-(3-(2-fluorophenyl)-1-(3-(2-(2-hydroxyethylamino)-2-oxoethyl)phenyl)-1H-pyrazol-5-yl)-3-(naphthalen-1-yl)urea] and `O=C(Cc1cccc(-n2nc(-c3ccccc3F)cc2NC(=O)Nc2cccc3ccccc23)c1)NCC(O)CO` (stereo not shown) [Example 425, 1-(1-(3-(2-(2,3-dihydroxypropylamino)-2-oxoethyl)phenyl)-3-(2-fluorophenyl)-1H-pyrazol-5-yl)-3-(naphthalen-1-yl)urea] are within 1.5-fold of each other in IC50: 38 nM for the first, 29 nM for the second.

Going from `CC(C)(C)c1cc(NC(=O)Nc2ccc(Cl)cc2)n(-c2cccc(CO)c2)n1` [Example 224] to `CNC(=O)Cc1cccc(-n2nc(C(C)(C)C)cc2NC(=O)Nc2cccc(F)c2F)c1` [Example 401, 1-(3-t-butyl-1-(3-(2-(methylamino)-2-oxoethyl)phenyl)-1H-pyrazol-5-yl)-3-(2,3-difluorophenyl)urea], the IC50 rises from 38 nM to 63 nM (1.7-fold). The first is the more potent here.

Compared with `NC(=O)Cc1cccc(-n2nc(-c3cccs3)cc2NC(=O)N[C@H]2CCc3ccccc32)c1` [Example 415, 1-(1-(3-(2-amino-2-oxoethyl)phenyl)-3-(thiophen-2-yl)-1H-pyrazol-5-yl)-3-((S)-2,3-dihydro-1H-inden-1-yl)urea], `NC(=O)Cc1ccc(-n2nc(-c3cccs3)cc2NC(=O)N[C@H]2CCc3ccccc32)cc1` [Example 489, 1-(1-(4-(2-amino-2-oxoethyl)phenyl)-3-(thiophen-2-yl)-1H-pyrazol-5-yl)-3-((S)-2,3-dihydro-1H-inden-1-yl)urea] is 2.1-fold higher in IC50: 17 nM for the first, 35 nM for the second.

`O=C(Cc1cccc(-n2nc(-c3ccccc3F)cc2NC(=O)N[C@H]2CCc3ccccc32)c1)NCCO` [Example 412, 1-((S)-2,3-dihydro-1H-inden-1-yl)-3-(3-(2-fluorophenyl)-1-(3-(2-(2-hydroxyethylamino)-2-oxoethyl)phenyl)-1H-pyrazol-5-yl)urea] and `O=C(Cc1cccc(-n2nc(-c3ccccc3F)cc2NC(=O)N[C@H]2CCc3ccccc32)c1)NCC(O)CO` (stereo partly drawn) [Example 413, 1-((S)-2,3-dihydro-1H-inden-1-yl)-3-(1-(3-(2-(2,3-dihydroxypropylamino)-2-oxoethyl)phenyl)-3-(2-fluorophenyl)-1H-pyrazol-5-yl)urea] are within 1.5-fold of each other in IC50: 41 nM for the first, 28 nM for the second.

Going from `O=C(Cc1cccc(-n2nc(-c3ccc(F)cc3)cc2NC(=O)Nc2cccc(Cl)c2Cl)c1)NCCO` [Example 455, 1-(2,3-dichlorophenyl)-3-(3-(4-fluorophenyl)-1-(3-(2-(2-hydroxyethylamino)-2-oxoethyl)phenyl)-1H-pyrazol-5-yl)urea] to `O=C(Cc1cccc(-n2nc(-c3cccs3)cc2NC(=O)Nc2cccc3ccccc23)c1)NCCO` [Example 428, 1-(1-(3-(2-(2-hydroxyethylamino)-2-oxoethyl)phenyl)-3-(thiophen-2-yl)-1H-pyrazol-5-yl)-3-(naphthalen-1-yl)urea], the IC50 falls from 82 nM to 12 nM (6.8-fold).

`O=C(Cc1cccc(-n2nc(-c3cccs3)cc2NC(=O)N[C@H]2CCc3ccccc32)c1)NCC(O)CO` (stereo partly drawn) [Example 417, 1-((S)-2,3-dihydro-1H-inden-1-yl)-3-(1-(3-(2-(2,3-dihydroxypropylamino)-2-oxoethyl)phenyl)-3-(thiophen-2-yl)-1H-pyrazol-5-yl)urea] and `O=C(O)Cc1cccc(-n2nc(-c3ccccc3F)cc2NC(=O)N[C@H]2CCc3ccccc32)c1` [Example 360, 2-(3-(5-(3-((S)-2,3-dihydro-1H-inden-1-yl)ureido)-3-(2-fluorophenyl)-1H-pyrazol-1-yl)phenyl)acetic acid] are within 1.5-fold of each other in IC50: 29 nM for the first, 20 nM for the second.

`O=C(O)Cc1cccc(-n2nc(-c3nccs3)cc2NC(=O)Nc2cccc(Cl)c2Cl)c1` [Example 359, 2-(3-(5-(3-(2,3-dichlorophenyl)ureido)-3-(thiazol-2-yl)-1H-pyrazol-1-yl)phenyl)acetic acid] and `O=C(O)Cc1cccc(-n2nc(-c3cccs3)cc2NC(=O)Nc2ccc(F)c(F)c2F)c1` [Example 365, 2-(3-(3-(thiophen-2-yl)-5-(3-(2,3,4-trifluorophenyl)-ureido)-1H-pyrazol-1-yl)phenyl)acetic acid] are the same in IC50: 70 nM for the first, 70 nM for the second.

Going from `CN(C)[C@H]1CCN(C(=O)Cc2cccc(-n3nc(C4CCCC4)cc3NC(=O)Nc3cccc(Cl)c3Cl)c2)C1` [Example 419, 1-(3-cyclopentyl-1-(3-(2-((S)-3-(dimethylamino)pyrrolidin-1-yl)-2-oxoethyl)phenyl)-1H-pyrazol-5-yl)-3-(2,3-dichlorophenyl)urea] to `O=C(O)Cc1cccc(-n2nc(-c3ccccc3F)cc2NC(=O)Nc2cccc3ccccc23)c1` [Example 363, 2-(3-(3-(2-Fluorophenyl)-5-(3-(naphthalen-1-yl)ureido)-1H-pyrazol-1-yl)phenyl)acetic acid], the IC50 falls from 38 nM to 13 nM (2.9-fold).
